Patent US10485815B2, “Substituted nucleosides, nucleotides and analogs thereof” (Alios BioPharma, Inc., priority 2012, dated 2019)

Experiments:
[1] = system: human parainfluenza virus 3 (hPIV3, ATCC: VR-93); assay: Parainfluenza virus-3 (PIV-3) RT-PCR assay in A549 cells; type: cell-based; settings: Human respirovirus 3, 168 h, hPIV3 MOI 0.1, 7 days after infection
hPIV3-eGFP = assay: microbe, parasite or virus in culture; type: cell-based, human parainfluenza virus 3; settings: Human respirovirus 3, A549, 72 h
RSV A2 (ATCC: VR-1540) = assay: RSV RT-PCR based assay in HEp-2 cells; type: cell-based; settings: human respiratory syncytial virus, 96 h; RT-PCR assay, HEp-2 cells, RSV A2 MOI 0.1, 4 days after infection; read-out: EC50
RSV polymerase = RSV polymerase (Human respiratory syncytial virus A, UniProt P28887); assay: biochemical
RSV polymerase, sequence (P28887 whole entry, looked up): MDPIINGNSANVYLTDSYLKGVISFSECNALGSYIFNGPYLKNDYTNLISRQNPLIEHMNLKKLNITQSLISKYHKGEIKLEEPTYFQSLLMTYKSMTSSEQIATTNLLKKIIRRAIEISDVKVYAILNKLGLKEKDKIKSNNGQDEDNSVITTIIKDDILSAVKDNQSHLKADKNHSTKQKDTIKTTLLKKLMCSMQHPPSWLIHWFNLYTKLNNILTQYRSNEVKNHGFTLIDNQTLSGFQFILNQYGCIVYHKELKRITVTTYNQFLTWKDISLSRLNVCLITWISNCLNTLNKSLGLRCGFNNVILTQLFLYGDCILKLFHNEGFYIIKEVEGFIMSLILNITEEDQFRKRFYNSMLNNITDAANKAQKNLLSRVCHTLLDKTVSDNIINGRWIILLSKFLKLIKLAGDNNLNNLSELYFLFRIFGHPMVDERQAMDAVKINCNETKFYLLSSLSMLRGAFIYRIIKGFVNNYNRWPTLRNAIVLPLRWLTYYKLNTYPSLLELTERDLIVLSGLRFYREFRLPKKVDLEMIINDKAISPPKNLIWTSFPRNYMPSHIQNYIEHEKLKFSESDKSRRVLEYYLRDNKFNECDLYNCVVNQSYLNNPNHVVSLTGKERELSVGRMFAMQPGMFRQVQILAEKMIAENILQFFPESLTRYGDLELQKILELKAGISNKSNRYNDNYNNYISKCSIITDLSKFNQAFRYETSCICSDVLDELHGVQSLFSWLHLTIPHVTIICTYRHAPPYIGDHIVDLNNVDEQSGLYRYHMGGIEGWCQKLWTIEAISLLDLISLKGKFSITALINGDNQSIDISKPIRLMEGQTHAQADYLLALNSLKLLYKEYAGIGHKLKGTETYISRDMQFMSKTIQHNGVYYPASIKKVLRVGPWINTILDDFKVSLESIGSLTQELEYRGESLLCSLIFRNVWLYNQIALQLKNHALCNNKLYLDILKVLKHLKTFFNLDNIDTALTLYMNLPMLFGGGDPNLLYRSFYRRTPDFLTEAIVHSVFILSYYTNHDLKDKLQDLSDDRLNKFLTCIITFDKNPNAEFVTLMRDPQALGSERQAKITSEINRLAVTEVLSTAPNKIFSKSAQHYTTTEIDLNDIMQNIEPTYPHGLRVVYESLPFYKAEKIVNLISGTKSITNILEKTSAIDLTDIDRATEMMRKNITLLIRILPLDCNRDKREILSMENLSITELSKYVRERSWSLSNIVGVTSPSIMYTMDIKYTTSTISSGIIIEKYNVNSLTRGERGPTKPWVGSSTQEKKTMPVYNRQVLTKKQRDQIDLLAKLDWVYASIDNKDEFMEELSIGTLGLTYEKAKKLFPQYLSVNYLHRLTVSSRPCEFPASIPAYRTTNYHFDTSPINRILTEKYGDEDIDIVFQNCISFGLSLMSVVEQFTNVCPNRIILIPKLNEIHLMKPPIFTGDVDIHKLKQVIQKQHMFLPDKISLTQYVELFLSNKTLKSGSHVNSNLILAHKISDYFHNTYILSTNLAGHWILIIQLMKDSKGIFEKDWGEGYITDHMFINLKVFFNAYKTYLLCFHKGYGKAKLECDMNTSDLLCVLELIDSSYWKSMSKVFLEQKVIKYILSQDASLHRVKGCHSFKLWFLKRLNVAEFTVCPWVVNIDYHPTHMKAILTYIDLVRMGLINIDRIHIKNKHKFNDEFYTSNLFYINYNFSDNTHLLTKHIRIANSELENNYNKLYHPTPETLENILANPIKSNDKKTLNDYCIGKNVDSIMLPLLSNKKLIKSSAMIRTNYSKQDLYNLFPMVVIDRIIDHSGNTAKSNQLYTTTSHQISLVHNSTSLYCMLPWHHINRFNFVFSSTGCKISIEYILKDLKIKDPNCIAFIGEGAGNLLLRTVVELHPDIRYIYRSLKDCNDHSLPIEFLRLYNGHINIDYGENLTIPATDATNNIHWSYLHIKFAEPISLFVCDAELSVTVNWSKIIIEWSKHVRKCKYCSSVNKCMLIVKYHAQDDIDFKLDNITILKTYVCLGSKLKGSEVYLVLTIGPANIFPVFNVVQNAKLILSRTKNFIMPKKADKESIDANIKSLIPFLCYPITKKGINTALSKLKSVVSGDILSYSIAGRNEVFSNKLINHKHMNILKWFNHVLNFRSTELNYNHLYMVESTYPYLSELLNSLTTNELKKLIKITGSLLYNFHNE

| SMILES | EC50 (RSV A2 (ATCC: VR-1540)) | EC50 (RSV polymerase) | also measured |
| --- | --- | --- | --- |
| CC(F)[C@]1(CO)O[C@@H](n2ccc(N)nc2=O)[C@H](F)[C@@H]1O (stereo partly drawn) [Compound 40a] |  |  | EC50 [1]: > 100 µM; EC50 (hPIV3-eGFP): > 100 µM |
| Nc1ccn([C@@H]2O[C@@](CO)(C3CC3)[C@@H](O)[C@H]2F)c(=O)n1 [Compound 41a] | 1 to 10 µM |  |  |
| COC[C@]1(CO)O[C@@H](n2ccc(N)nc2=O)[C@H](F)[C@@H]1O [Compound 43a] |  |  | EC50 [1]: > 100 µM; EC50 (hPIV3-eGFP): > 100 µM |
| CC(C)(C)C(=O)OCOP(=O)(OCOC(=O)C(C)(C)C)OC[C@@]1(CCl)O[C@@H](n2ccc(=O)[nH]c2=O)[C@H](F)[C@@H]1O [Compound 45a] | 10 to 100 µM |  |  |
| CC(C)C(=O)OC[C@@]1(CCl)O[C@@H](n2ccc(N)nc2=O)[C@H](F)[C@@H]1OC(=O)C(C)C [Compound 46a] | 1 to 10 µM |  |  |
| CCCCC(=O)OC[C@@]1(CCl)O[C@@H](n2ccc(N)nc2=O)[C@H](F)[C@@H]1OC(=O)CCCC [Compound 48a] | 1 to 10 µM |  |  |
| O=c1ccn([C@@H]2O[C@](CCl)(COP(=O)(O)OP(=O)(O)OP(=O)(O)O)[C@@H](O)[C@H]2F)c(=O)[nH]1 [Compound 56a] |  | 2 to 10 µM |  |
| Nc1ccn([C@@H]2O[C@](CF)(COP(=O)(O)OP(=O)(O)OP(=O)(O)O)[C@@H](O)[C@H]2F)c(=O)n1 [Compound 56c] |  | < 2 µM |  |
| Nc1ccn([C@@H]2O[C@@](COP(=O)(O)OP(=O)(O)OP(=O)(O)O)(C3CC3)[C@@H](O)[C@H]2F)c(=O)n1 [Compound 56d] |  | < 2 µM |  |
| CC(F)[C@]1(COP(=O)(O)OP(=O)(O)OP(=O)(O)O)O[C@@H](n2ccc(N)nc2=O)[C@H](F)[C@@H]1O (stereo partly drawn) [Compound 56e] |  | < 2 µM |  |
| CSC[C@]1(CO)O[C@@H](n2ccc(N)nc2=O)[C@H](F)[C@@H]1O [Compound 69a] | < 1 µM |  | EC50 [1]: < 20 µM; EC50 (hPIV3-eGFP): 20 to 100 µM |
| Nc1ccn([C@@H]2O[C@@](CO)(CBr)[C@@H](O)[C@H]2F)c(=O)n1 [Compound 71a] | < 1 µM |  | EC50 [1]: > 100 µM; EC50 (hPIV3-eGFP): > 100 µM |
| O=c1nc(NO)ccn1[C@@H]1O[C@@](CO)(CCl)[C@@H](O)[C@H]1F [Compound 73a] | 10 to 100 µM |  |  |
| Nc1nc(=O)n([C@@H]2O[C@@](CO)(CCl)[C@@H](O)[C@H]2F)cc1F [Compound 76a] | < 1 µM |  |  |
| Nc1nc2c(ncn2[C@@H]2O[C@@](CO)(CCl)[C@@H](O)[C@H]2F)c(=O)[nH]1 [Compound 81a] | 1 to 10 µM |  |  |
| C[C@]1(CO)O[C@@H](n2cnc3c(=O)[nH]c(N)nc32)[C@H](F)[C@@H]1O [Compound 82a] | < 1 µM |  |  |
| COC[C@]1(COP(=O)(O)OP(=O)(O)OP(=O)(O)O)O[C@@H](n2ccc(N)nc2=O)[C@@H](F)[C@H]1O [Compound 97a] |  | < 2 µM |  |
| CSC[C@]1(COP(=O)(O)OP(=O)(O)OP(=O)(O)O)O[C@@H](n2ccc(N)nc2=O)[C@@H](F)[C@H]1O [Compound 97b] |  | < 2 µM |  |
| Nc1ccn([C@@H]2O[C@](CBr)(COP(=O)(O)OP(=O)(O)OP(=O)(O)O)[C@H](O)[C@@H]2F)c(=O)n1 [Compound 97c] |  | < 2 µM |  |
| Nc1nc(=O)n([C@@H]2O[C@](CCl)(COP(=O)(O)OP(=O)(O)OP(=O)(O)O)[C@H](O)[C@@H]2F)cc1F [Compound 97g] |  | < 2 µM |  |
| Nc1ncnc2c1ncn2[C@@H]1O[C@](CCl)(COP(=O)(O)OP(=O)(O)OP(=O)(O)O)[C@@H](O)[C@H]1F [Compound 98b] |  | < 2 µM |  |
| Nc1ncnc2c1ncn2[C@@H]1O[C@](CF)(COP(=O)(O)OP(=O)(O)OP(=O)(O)O)[C@@H](O)[C@H]1F [Compound 98c] |  | < 2 µM |  |
| CC(C)OC(=O)OCOP(=O)(OCOC(=O)OC(C)C)OC[C@@]1(C2CC2)O[C@@H](n2ccc(N)nc2=O)[C@H](F)[C@@H]1O [Compound 105a] | 10 to 100 µM |  |  |
| COC[C@]1(COP(=O)(OCOC(=O)OC(C)C)OCOC(=O)OC(C)C)O[C@@H](n2ccc(N)nc2=O)[C@H](F)[C@@H]1O [Compound 106a] | 10 to 100 µM |  |  |
| CC[C@]1(COC(=O)C(C)C)O[C@@H](n2ccc(N)nc2=O)[C@H](F)[C@@H]1OC(=O)C(C)C [Compound 108a] | 1 to 10 µM |  |  |
| [N-]=[N+]=N[C@]1(CO)O[C@@H](n2ccc(N)nc2=O)[C@@H](O)[C@@H]1O [Compound 113a] |  |  | EC50 [1]: > 100 µM; EC50 (hPIV3-eGFP): > 100 µM |
